{
  "source": "patent US8338475B2",
  "about": "“Anti-proliferative pharmaceutical composition” (BioCis Pharma Oy, priority 2003, dated 2012)",
  "key": {"[1]": {"tested_on": "HeLa (epithelial adenocarcinoma of cervix)", "assay": "Proliferation assay (CellTiter 96), HeLa cells", "assay_type": "cell-based, human", "settings": "pH 6.5, 44 h, cis-UCA 10 mM, CPT 2 μM, 15,000 cells per 100 μl", "description": "(§1) Transformed tumour cell lines WM 266-4 and A2058 (cutaneous melanoma), HT-1080 (epithelial fibrosarcoma), HeLa (epithelial adenocarcinoma of cervix), HK293 (kidney epithelial cells) and non-transformed cell line HSF (skin fibroblast from a healthy volunteer donor) of human origin have been described earlier (Li et al. 2003). The K562 (chronic myelogenous leukemia) cells were purchased from American Type Culture Collection.\n(§2) The cells were maintained in logarithmic growth phase in IMDM medium (Invitrogen, Paisley, UK) supplemented with 10% fetal calf serum and antibiotics in a humidified incubator at +37° C., 5% CO2. The adherent cells lines were harvested for experiments with 0.25% trypsin-EDTA in PBS for 5 min and then resuspended and washed in medium. After counting of viable cells, 15,000 to 75,000 cells were transferred into flat-bottom 96-well cell culture plates in a volume of 100 or 150 μl.\n(§3) The proliferation activity of cultured cell lines was quantified in flat-bottom 96-well plates with a modified colorimetric assay based on a tetrazolium derivative (CellTiter 96 Aqueous One Solution Cell Proliferation Assay, Promega). The cells were cultured in the presence of camptothecin and/or cis-UCA for 20 to 92 h, then the proliferation reagent was added for 2 h, and the absorbance at 490 nm was measured in a plate reader. […]"}, "A2058 tumours": {"tested_on": "A2058 tumours", "assay": "Haematoxylin/eosin staining of tumour sections (necrosis)", "assay_type": "in vivo, SCID/SCID mice", "settings": "tumours collected after 16 days; 30 mM cis-UCA, 1 μM CPT intratumoural", "description": "(§4) After 16 days from the first injection, all the animals were sacrificed with CO2, and the tumours were collected and fixed in formalin for further studies. In groups A, C, and D, one mouse was sacrificed before the end of the experiment because of poor development of the tumour (no measurable tumour at day 0). One animal in group B was sacrificed prematurely after it had severly scratched the tumour. Data from these animals were not included in the calculation of the tumour size results. All the removed animals were female mice. Immunohistochemical data was obtained also from the removed mice except from group B. The experiments were conducted under a protocol approved by the local ethics committee.\n(§5) Paraffin sections of the tumours were stained with haematoxylin/eosin following standard procedures for an overall picture. Ki67 was stained to detect the amount of proliferating cells. The staining procedure for the Ki67 primary antibody (Dako, Klostrup, Denmark) at 1:50 dilution and secondary antibody (StreptABComplex/HRP Duet Mouse/Rabbit, Dako) at 1:100 dilution followed the instructions provided by the manufacturer. Two sections from each tumour was examined."}, "[2]": {"tested_on": "WM 266-4 (cutaneous melanoma)", "assay": "Proliferation assay (CellTiter 96), WM266-4 cells", "assay_type": "cell-based, human", "experimental": "The cells were cultured in triplicate with or without 2 μM camptothecin (CPT) or 10 mM cis-UCA in a density of 15,000 cells per […]. A, Cells taken from normal pH 7.4 cultures to test conditions at pH 6.5. B, Cells cultured in low pH 6.7 adaptation medium for 3 d, then tested at pH 6.5. C, Cells cultured and tested at pH 7.4.\nas §1, §2\nThe proliferation activity of cultured cell lines was quantified in flat-bottom 96-well plates with a modified colorimetric assay based on a tetrazolium derivative (CellTiter 96 Aqueous One Solution Cell Proliferation Assay, Promega). The cells were cultured in the presence of camptothecin and/or cis-UCA for 20 to 92 h, then the proliferation reagent was added for 2 h, and the absorbance at 490 nm was measured in a plate reader. Blank absorption values in wells containing medium without cells were subtracted before comparison analysis.\nThe cell lines were tested in a 44-h culture at pH 6.5 with or without 2 μM camptothecin and 10 mM cis-UCA at 15,000 cells per 100 μl total volume. […] In order to further characterise the effective anti-proliferative concentration range of cis-UCA, proliferation was measured in a 44-h assay at pH 6.5 with cis-UCA concentration ranging from 30 μM to 30 mM."}, "[3]": {"tested_on": "Ki67 (proliferating cells) in A2058 tumours", "assay": "Immunohistochemistry of tumours, Ki67 staining", "assay_type": "in vivo, SCID/SCID mice", "settings": "tumours collected after 16 days; 30 mM cis-UCA, 1 μM CPT intratumoural", "description": "as §4, §5"}, "cell lines": {"tested_on": "cell lines", "assay": "Proliferation assay, statements on the cell lines as a group", "assay_type": "cell-based, human", "settings": "all three studied transformed cell lines; 44 h; pH 6.5 (FIG. 4)", "experimental": "The cells were cultured for 44 h with or without 2 μM camptothecin (CPT) at pH 6.5 or 7.4 conditions. After a 2-h incubation with the proliferation assay reagent, the absorbance at 490 nm was recorded. Cells were cultured in a density of 15,000 cells (K562, HT-1080, HK293) or 75,000 cells (the other cells) in a volume of 150 μl.\nThree cell lines were cultured with cis-UCA and/or 1 μM camptothecin at a density of […] per well (100 μl) for 44 h in pH 6.5 medium. Blank wells with all the cis-UCA concentrations but without cells were included and their absorbance subtracted from those of the corresponding test wells.\nas §1, with “The K562 (chronic myelogenous leukemia) cells were purchased from American Type Culture Collection.” left out\nas §3"}, "HeLa cells": {"tested_on": "HeLa cells", "assay": "Monitoring of intracellular pH (BCECF, flow cytometry), HeLa cells", "assay_type": "cell-based, human", "experimental": "The cells were labelled with BCECF and placed in pH-adjusted buffer solutions with or without various concentrations of cis-UCA. Left panels, calibration of BCECF fluorescence intensity of nigericin-treated cells in high-potassium buffer as a function of buffer pH. Right panels, intracellular pH values in buffers with or without various concentrations of cis-UCA. All test buffers were adjusted to pH 7.4 (%) or pH 6.5 (+) after the addition of cis-UCA. Results were calculated using the corresponding calibration curve on the left.\nIntracellular pH in the cell lines in the presence of cis-UCA was measured with the pH-sensitive fluorescent dye 2′,7′-bis-(2-carboxyethyl)-5-(and-6)-carboxyfluorescein (BCECF, acetoxymethyl ester; Molecular Probes, Leiden, The Netherlands) by flow cytometry. Two million cells were incubated in 5 ml DMEM medium (Invitrogen), pH 7.4, containing 0.35 μM BCECF at 37° C. for 30 min, washed once in sodium phosphate buffer (50 mM NaH2PO4/Na2HPO4, 43 mM NaCl), pH 7.4, and resuspended in 0.3 ml saline. Twenty μl of the cell suspension was pipetted into flow cytometry tubes. […]\nCalibration of intracellular pH in situ was performed using the K^+/H^+ ionophore nigericin (Molecular Probes) in high-potassium buffers. […] Exact intracellular pH values were calculated from mean BCECF fluorescence intensities by reference with nigericin-clamped calibration cells. […]"}, "[4]": {"tested_on": "HT-1080 (epithelial fibrosarcoma)", "assay": "Proliferation assay (CellTiter 96), HT-1080 cells", "assay_type": "cell-based, human", "settings": "pH 6.5, 44 h, cis-UCA 10 mM, CPT 2 μM, 15,000 cells per 100 μl", "description": "as §1, §2, §3"}},
  "note": "Several values for one entry are separate records, joined by “and”; a condition that tells them apart may be missing. Identical values can stand only once.",
  "data": [
    {"smiles": "O=C(O)/C=C\\c1c[nH]cn1", "note": "[cis-UCA, cis-urocanic acid]", "values": [
      {"measurement": "Inhibition of proliferation (mean percentage inhibition ± SD compared with untreated control)", "setting": "[1]", "result": "50 ± 1.7", "unit": "%"},
      {"measurement": "Necrosis (histological sections with haematoxylin/eosin staining)", "setting": "A2058 tumours", "result": "Dead cells and large necrotic areas were detected and yes"},
      {"measurement": "percentage inhibition of proliferation", "setting": "[2]; 10 mM cis-UCA alone, cells from pH 7.4 cultures tested at pH 6.5, 92 h (FIG. 2A)", "result": 36, "unit": "%"},
      {"measurement": "percentage inhibition of proliferation", "setting": "[2]; 10 mM cis-UCA, cells adapted to pH 6.7 for 3 days, tested at pH 6.5, 92 h (FIG. 2B)", "result": 28, "unit": "%"},
      {"measurement": "Inhibition of proliferation (mean percentage inhibition ± SD compared with untreated control)", "setting": "[2]; pH 6.5, 44 h, cis-UCA 10 mM, CPT 2 μM, 15,000 cells per 100 μl", "result": "20 ± 0.6", "unit": "%"},
      {"measurement": "Ki67+ (number of positive tumours/total analysed)", "setting": "[3]", "result": "none of the analysed five tumours and 0/5"},
      {"measurement": "concentration at which proliferation was inhibited", "setting": "cell lines", "result": "≥ 3", "unit": "mM"},
      {"measurement": "decrease of intracellular pH", "setting": "HeLa cells; extracellular pH 6.5, highest cis-UCA concentration (30 mM)", "result": "about 0.25 pH units"},
      {"measurement": "intracellular pH with escalating concentrations", "setting": "HeLa cells; extracellular pH 7.4, cis-UCA up to 30 mM", "result": "remained almost constant"},
      {"measurement": "Inhibition of proliferation (mean percentage inhibition ± SD compared with untreated control)", "setting": "[4]", "result": "47 ± 0.5", "unit": "%"}
    ]}
  ]
}
